Assay results reported in paper PMC5791972 (PLoS ONE, 2018).
“Also recorded” adds a separate entry of the source. Like-named read-outs stand apart in the source and are kept apart here.

How the values were obtained:
α2C (h) [1] = biological target: T1, α2C (h) (Homo sapiens, UniProt P18825); format: binding; settings: 1 h
T1 construct: host or cells: CHO cells
T1 sequence (P18825 1-462): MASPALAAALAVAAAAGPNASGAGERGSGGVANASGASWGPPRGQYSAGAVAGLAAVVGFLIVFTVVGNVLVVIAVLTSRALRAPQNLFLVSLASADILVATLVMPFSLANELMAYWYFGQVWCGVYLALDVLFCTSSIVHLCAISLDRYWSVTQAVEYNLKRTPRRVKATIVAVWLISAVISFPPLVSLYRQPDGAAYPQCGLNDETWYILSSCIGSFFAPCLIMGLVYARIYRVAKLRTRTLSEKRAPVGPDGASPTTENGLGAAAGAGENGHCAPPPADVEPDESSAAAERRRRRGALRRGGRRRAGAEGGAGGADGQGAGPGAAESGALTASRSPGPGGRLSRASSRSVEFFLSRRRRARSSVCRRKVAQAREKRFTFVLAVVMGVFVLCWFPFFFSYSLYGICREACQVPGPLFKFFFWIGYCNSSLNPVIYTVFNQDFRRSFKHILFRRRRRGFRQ

[2] = Brain homogenate assay (unbound fraction in brain); format: in vitro ADME; settings: rat
Protocol: Frozen rat brains were homogenized in PBS buffer (dilution factor D = 4). The homogenate was spiked with test compounds (1 μM final concentration, final concentration of DMSO was 0.1%) and subsequently dialyzed against PBS buffer for 8 hrs at 37°C in rapid equilibrium dialysis cells (RED-device, Pierce). At the end of the dialysis period, the dialysate was transferred into reaction tubes and mixed with an analytical internal standard. Tissue homogenate was added to buffer samples and buffer was added to tissue samples to ensure identical matrix composition for bioanalytical measurement. After protein precipitation using acetonitrile, samples were measured by LC-MS/MS. The free fraction was calculated as fu,app = (CPBS/Chomogenate). Since the brains were homogenized in the buffer, the observed free fraction values (fu,app) were extrapolated to the fractions unbound in the brain (fu*) based on the dilution (D) using the following formula: fu*=(1/D)/((1/fu,app−1)+1/D).

[3] = C57BL/6, mouse, in vivo
C57BL/6J mice = assay: Pavlovian fear learning and memory, non-manipulated mice; format: in vivo, mouse; settings: 1 or 3 mg/kg oral, 2 h before
CD-1 mice = assay: Forced swim test
Kv4.3 = Kv4.3 (Homo sapiens, UniProt Q9UK17); assay: Ion channel selectivity patch clamp; format: cell-based; settings: Voltage (+40 mV)
in vitro = settings: plasma
[4] = system: sigma (non-selective) (h); format: binding, human; settings: 1.0E-06 M
ATPase (Na+/K+) = assay: enzyme assay; format: biochemical, porcine; settings: 1.0E-06 M
GABA transporter = GABA transporter (Rattus norvegicus, UniProt P23978)
MCH1 (h) = biological target: T2, MCH1 (h) (Homo sapiens, UniProt Q99705); format: binding; settings: 1.0E-06 M
T2 construct: host or cells: CHO cells
T2 sequence (Q99705 whole entry): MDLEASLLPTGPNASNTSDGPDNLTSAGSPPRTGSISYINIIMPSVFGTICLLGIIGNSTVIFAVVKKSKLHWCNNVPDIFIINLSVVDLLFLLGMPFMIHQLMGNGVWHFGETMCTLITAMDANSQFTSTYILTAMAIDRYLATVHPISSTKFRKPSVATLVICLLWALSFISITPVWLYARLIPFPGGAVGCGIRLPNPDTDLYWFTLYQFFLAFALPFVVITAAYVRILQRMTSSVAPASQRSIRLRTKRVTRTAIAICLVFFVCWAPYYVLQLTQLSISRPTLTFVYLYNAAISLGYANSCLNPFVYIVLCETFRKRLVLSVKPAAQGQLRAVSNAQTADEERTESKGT

GABAB(1b) (h) = GABAB(1b) (h) (Homo sapiens, UniProt Q9UBS5); assay: biochemical
Sequence of GABAB(1b) (h) (Q9UBS5 1-844 isoform Q9UBS5-2): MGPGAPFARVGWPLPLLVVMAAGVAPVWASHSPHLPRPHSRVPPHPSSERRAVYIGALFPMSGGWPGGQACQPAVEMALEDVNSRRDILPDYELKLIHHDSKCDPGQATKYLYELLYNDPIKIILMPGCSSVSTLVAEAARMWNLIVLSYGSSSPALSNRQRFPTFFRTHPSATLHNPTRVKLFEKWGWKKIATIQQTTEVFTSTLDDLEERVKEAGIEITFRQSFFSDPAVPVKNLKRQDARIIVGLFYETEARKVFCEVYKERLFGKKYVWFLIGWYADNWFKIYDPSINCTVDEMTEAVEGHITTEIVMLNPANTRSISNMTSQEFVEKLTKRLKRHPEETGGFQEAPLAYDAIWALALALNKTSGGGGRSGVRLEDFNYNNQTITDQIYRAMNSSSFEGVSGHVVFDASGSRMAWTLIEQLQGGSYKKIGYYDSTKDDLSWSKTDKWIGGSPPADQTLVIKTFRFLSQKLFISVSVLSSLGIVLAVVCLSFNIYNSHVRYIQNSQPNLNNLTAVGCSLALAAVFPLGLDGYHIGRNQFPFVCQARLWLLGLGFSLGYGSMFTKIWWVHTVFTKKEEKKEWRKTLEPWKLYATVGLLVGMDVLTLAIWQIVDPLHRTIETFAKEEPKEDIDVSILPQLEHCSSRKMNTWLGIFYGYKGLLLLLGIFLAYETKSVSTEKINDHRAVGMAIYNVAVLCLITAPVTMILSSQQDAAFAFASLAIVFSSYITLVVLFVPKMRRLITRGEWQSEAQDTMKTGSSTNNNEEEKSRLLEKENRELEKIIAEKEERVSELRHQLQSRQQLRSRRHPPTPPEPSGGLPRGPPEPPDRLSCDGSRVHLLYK
Sequence of GABAB(1b) (h) (O75899 42-941 partner): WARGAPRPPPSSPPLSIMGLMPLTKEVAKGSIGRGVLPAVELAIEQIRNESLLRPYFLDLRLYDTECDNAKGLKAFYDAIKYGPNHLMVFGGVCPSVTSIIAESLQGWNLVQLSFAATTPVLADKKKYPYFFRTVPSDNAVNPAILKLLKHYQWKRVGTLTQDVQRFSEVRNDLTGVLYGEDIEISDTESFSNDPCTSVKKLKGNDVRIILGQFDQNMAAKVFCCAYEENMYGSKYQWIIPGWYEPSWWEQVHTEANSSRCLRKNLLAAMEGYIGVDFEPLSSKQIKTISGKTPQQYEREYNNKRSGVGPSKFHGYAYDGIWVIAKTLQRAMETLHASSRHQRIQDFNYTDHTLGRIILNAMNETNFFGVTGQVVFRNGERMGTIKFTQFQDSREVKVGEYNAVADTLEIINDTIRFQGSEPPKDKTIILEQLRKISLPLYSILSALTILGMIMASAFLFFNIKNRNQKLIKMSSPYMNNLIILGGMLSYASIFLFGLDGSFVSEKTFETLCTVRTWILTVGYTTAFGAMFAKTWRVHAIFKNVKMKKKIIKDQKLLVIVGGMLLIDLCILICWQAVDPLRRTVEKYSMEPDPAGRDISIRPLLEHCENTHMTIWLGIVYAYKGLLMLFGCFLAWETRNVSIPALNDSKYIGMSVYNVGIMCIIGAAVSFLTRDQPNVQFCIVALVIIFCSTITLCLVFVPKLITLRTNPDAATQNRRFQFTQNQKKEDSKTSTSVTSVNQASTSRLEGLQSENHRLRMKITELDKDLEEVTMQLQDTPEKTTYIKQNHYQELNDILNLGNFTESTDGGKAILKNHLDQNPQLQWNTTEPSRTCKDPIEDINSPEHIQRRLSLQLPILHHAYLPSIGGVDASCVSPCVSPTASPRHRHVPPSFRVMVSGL

μ (MOP) (h) = μ (MOP) (h) (Homo sapiens, UniProt P35372); assay: biochemical
Sequence of μ (MOP) (h) (P35372 whole entry): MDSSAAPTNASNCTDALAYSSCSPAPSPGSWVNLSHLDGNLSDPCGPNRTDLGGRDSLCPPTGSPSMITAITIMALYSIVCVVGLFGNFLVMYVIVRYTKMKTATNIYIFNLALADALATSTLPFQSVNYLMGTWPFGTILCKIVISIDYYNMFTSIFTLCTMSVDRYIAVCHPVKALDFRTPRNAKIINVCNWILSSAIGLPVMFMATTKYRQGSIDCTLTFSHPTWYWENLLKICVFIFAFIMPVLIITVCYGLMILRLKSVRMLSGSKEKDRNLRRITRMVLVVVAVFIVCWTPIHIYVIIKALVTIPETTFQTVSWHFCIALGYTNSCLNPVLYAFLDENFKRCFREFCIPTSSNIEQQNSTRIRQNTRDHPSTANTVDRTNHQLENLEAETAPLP

M3 (h) = M3 (h) (Homo sapiens, UniProt P20309); assay: biochemical
Sequence of M3 (h) (P20309 whole entry): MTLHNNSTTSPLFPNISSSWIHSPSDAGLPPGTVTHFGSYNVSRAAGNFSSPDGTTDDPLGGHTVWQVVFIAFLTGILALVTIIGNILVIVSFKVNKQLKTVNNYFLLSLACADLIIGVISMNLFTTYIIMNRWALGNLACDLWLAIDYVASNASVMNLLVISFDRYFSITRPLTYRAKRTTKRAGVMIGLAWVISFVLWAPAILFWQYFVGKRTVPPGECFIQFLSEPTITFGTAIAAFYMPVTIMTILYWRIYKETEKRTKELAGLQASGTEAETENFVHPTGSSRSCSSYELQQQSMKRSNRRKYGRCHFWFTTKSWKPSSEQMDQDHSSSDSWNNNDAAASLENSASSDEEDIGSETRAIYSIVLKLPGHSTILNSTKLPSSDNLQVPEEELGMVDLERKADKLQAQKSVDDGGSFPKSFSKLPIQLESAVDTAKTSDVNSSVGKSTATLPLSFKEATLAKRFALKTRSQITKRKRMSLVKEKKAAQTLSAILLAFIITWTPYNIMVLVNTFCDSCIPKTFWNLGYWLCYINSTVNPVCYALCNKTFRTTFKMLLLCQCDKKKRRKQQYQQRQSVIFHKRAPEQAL

[5] = biological target: glycine (strychnine-insensitive) (Rattus norvegicus, UniProt P35439); format: binding
Kv1.3 = biological target: T3, Kv1.3 (Homo sapiens, UniProt P22001); assay: Ion channel selectivity patch clamp; format: cell-based; settings: Voltage (+20 mV)
T3 construct: expressed in transfected cells

COX1 (h) = biological target: T4, COX1 (h) (Homo sapiens, UniProt P23219); assay: biochemical; settings: 1.0E-06 M
T4 construct: Cerep (contract assay); host or cells: Sf9 cells
T4 sequence (P23219 24-599): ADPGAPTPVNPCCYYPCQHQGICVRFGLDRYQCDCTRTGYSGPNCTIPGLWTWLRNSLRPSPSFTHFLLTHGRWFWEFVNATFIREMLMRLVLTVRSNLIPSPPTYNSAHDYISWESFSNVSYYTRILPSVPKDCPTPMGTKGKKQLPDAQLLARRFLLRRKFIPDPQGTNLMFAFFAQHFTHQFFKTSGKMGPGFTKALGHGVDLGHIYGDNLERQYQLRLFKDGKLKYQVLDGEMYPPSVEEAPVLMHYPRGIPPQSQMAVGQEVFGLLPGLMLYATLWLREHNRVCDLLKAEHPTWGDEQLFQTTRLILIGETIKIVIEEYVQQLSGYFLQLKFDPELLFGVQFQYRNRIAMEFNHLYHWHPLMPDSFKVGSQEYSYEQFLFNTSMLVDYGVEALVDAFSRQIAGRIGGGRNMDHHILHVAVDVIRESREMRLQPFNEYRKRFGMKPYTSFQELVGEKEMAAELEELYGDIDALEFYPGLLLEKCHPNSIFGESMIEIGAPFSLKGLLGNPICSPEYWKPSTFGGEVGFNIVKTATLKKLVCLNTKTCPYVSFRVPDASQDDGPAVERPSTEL

A2A (h) = A2A (h) (Homo sapiens, UniProt P29274); settings: 1.0E-06 M
Sequence of A2A (h) (P29274 whole entry): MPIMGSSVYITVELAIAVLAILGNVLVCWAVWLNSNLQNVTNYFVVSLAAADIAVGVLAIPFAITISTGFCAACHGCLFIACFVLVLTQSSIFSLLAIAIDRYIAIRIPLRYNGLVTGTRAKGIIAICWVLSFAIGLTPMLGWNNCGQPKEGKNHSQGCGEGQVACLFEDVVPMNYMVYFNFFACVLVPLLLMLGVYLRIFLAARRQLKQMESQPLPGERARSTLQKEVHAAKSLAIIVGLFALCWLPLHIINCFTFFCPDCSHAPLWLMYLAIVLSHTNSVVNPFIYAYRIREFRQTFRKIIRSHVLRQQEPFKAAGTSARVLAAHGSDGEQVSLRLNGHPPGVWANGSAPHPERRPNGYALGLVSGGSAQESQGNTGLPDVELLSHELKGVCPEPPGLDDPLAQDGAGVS

AMPA = format: binding, rat; settings: 1.0E-06 M
α2C (h) [6] = biological target: T1, α2C (h); format: binding; settings: 1.0E-06 M

## Cn1c(=O)n(CCCO)c(=O)c2c1nc(Oc1cccc(Cl)c1)n2Cc1ccc(Cl)cc1 [HC-070]
α2C (h) [1]; read-out: % Inhibition 1st
  inhibition at 1 µM: 7.9%
α2C (h) [1]; read-out: % Inhibition 2nd
  inhibition at 1 µM: -1%
α2C (h) [1]; read-out: % Inhibition Mean
  inhibition at 1 µM: 3.5%
[2]; 8 h, 1 μM
  nonspecific tissue binding: > 99%
[2]; brain homogenate
  fraction unbound at 8 h, 1 μM: 0.0028 ± 0.0002
[3]; iv, 1 mg/kg, 2 h
  concentration in brain: 299 ± 11 nmol/kg
[3]; po, 10 mg/kg, 2 h
  concentration in brain tissue: 525 ± 72 nmol/kg
  unbound brain concentration: 1.5 nmol/kg
[3]; male, iv, 1 mg/kg
  MRTdisp: 1.9 h
[3]; male, po, 10 mg/kg
  MRTtot: 4.5 h
C57BL/6J mice
  CS-US fear learning (freezing): without an effect; also recorded: did not affect fear learning
  fear memory expression to the CS: no drug effect
  fear memory expression to the context: without effect; also recorded: no drug effect
CD-1 mice; 0.3, 1 or 3 mg/kg PO, 60 min prior, CD-1 mice
  immobility time: reduced the immobility time; also recorded: significantly decreased
CD-1 mice; Mus musculus, read-out: IC50 of immobility versus average plasma exposure (PK-PD)
  IC50: 0.058 µM
CD-1 mice; male, CD-1 and C57BL/6, mouse, in vivo
  calculated free brain concentration corresponding to PK-PD IC50: 0.00016 µM
Kv4.3
  IC50: > 1.9 µM
In vitro
  fraction unbound: 0.004

## Cn1c(=O)n(CCCO)c(=O)c2c1nc(Oc1cccc(OC(F)(F)F)c1)n2Cc1ccc(Cl)cc1 [HC-608]
[4]
  % Inhibition 1st: 28%
  % Inhibition 2nd: 30.6%
  % Inhibition Mean: 29.3%
ATPase (Na+/K+)
  % Inhibition 1st: 3.0%
  % Inhibition 2nd: -1.5%
  % Inhibition Mean: 0.8%
GABA transporter
  % Inhibition 2nd: -18.4%
  % Inhibition Mean: -15.7%
MCH1 (h); read-out: % Inhibition 1st
  inhibition at 1 µM: 7.9%
MCH1 (h); read-out: % Inhibition 2nd
  inhibition at 1 µM: -27.2%
MCH1 (h); read-out: % Inhibition Mean
  inhibition at 1 µM: -9.6%
GABAB(1b) (h); read-out: % Inhibition 1st
  inhibition at 1 µM: -9%
GABAB(1b) (h); read-out: % Inhibition 2nd
  inhibition at 1 µM: -7.8%
GABAB(1b) (h); read-out: % Inhibition Mean
  inhibition at 1 µM: -8.4%
μ (MOP) (h); read-out: % Inhibition 1st
  inhibition at 1 µM: 0.1%
μ (MOP) (h); read-out: % Inhibition 2nd
  inhibition at 1 µM: -6.8%
μ (MOP) (h); read-out: % Inhibition Mean
  inhibition at 1 µM: -3.3%
M3 (h); read-out: % Inhibition 1st
  inhibition at 1 µM: -9%
M3 (h); read-out: % Inhibition 2nd
  inhibition at 1 µM: -7.5%
M3 (h); read-out: % Inhibition Mean
  inhibition at 1 µM: -8.2%
[5]; read-out: % Inhibition 1st
  inhibition at 1 µM: 1.7%
[5]; read-out: % Inhibition 2nd
  inhibition at 1 µM: 3.1%
[5]; read-out: % Inhibition Mean
  inhibition at 1 µM: 2.4%
Kv1.3
  IC50: 1.05 ± 0.34 µM
COX1 (h); read-out: % Inhibition 1st
  inhibition at 1 µM: -1.5%
COX1 (h); read-out: % Inhibition 2nd
  inhibition at 1 µM: 27.2%
COX1 (h); read-out: % Inhibition Mean
  inhibition at 1 µM: 12.9%
A2A (h)
  % Inhibition 1st: 20.8%
  % Inhibition 2nd: 31.1%
  % Inhibition Mean: 25.9%
AMPA
  % Inhibition 1st: -2.1%
  % Inhibition 2nd: -9.2%
  % Inhibition Mean: -5.6%
α2C (h) [6]; read-out: % Inhibition 1st
  inhibition at 1 µM: -4.1%
α2C (h) [6]; read-out: % Inhibition 2nd
  inhibition at 1 µM: -10.2%
α2C (h) [6]; read-out: % Inhibition Mean
  inhibition at 1 µM: -7.1%
